Experimental findings from ChEMBL document CHEMBL5034000, “Novel Bisubstrate Inhibitors for Protein N-Terminal Acetyltransferase D” (J Med Chem, 2021) are described below.

Calls of active or inactive are those of the source. No cut-off for these calls is given here. Where a SMILES comes first, the peptide text is derived from it. [ ]: non-standard residue; d: D form. The star is where a group is joined. X2 = CC(C)(COP(=O)(O)OP(=O)(O)OC[C@H]1O[C@@H](n2cnc3c(N)ncnc32)[C@H](OP(=O)(O)O)[C@@H]1O)C(O)C(=O)NCCC(=O)NCC*; Mpa = O=C(O)CCS

The species named for data set [1] is Homo sapiens. As to the kind of experiment: Inhibition of human NatA using AcCoA and H4 peptide as substrate at 1 uM incubated for 12 min at room temperature relative to control.
Data set [2] has as its target T1, Histone acetyltransferase KAT8 (Homo sapiens) (UniProt Q9H7Z6).
T1 sequence (whole entry): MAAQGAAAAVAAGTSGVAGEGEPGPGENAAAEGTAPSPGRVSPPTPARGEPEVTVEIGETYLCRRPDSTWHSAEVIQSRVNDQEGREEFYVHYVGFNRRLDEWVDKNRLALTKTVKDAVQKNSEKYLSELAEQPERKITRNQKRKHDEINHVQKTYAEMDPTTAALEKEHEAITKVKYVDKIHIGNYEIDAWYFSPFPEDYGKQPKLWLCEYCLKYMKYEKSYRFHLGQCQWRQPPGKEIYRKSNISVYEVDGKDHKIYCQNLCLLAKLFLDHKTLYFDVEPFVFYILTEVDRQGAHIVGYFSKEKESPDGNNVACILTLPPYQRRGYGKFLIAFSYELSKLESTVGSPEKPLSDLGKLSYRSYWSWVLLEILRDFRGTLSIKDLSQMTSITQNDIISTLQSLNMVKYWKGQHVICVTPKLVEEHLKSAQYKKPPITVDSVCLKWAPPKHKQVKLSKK
Description: Inhibition of human MOF using AcCoA and H4 peptide as substrate at 1 uM incubated for 20 min at room temperature relative to control.

Data set [3] deals with NatC (Schizosaccharomyces pombe). Description: Inhibition of Schizosaccharomyces pombe NatC using AcCoA and MLRF peptide as substrate at 10 uM incubated for 5 min at room temperature.
In data set [4] the target is T2, N-alpha-acetyltransferase 50 (Homo sapiens) (UniProt Q9GZZ1).
T2 sequence (whole entry): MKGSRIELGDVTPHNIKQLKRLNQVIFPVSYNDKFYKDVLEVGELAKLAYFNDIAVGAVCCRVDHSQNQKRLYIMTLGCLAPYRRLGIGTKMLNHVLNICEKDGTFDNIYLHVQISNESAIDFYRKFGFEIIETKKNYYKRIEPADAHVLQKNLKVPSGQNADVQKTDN
As to the kind of experiment: Inhibition of human NatE using AcCoA and MLGP peptide as substrate at 10 uM incubated for 40 min at room temperature.

The species named for data set [5] is Homo sapiens. As to the kind of experiment: Inhibition of human NatB using AcCoA and MDVF peptide as substrate at 10 uM incubated for 10 min at room temperature.
A short description of data set [6]: Drug uptake in digitonin treated human HCT116 cells measured at 100 uM after 2 hrs of incubation by MALDI-MS. In kind it is ADME, cell-based. Particulars: hct-116, 2 h.
Data set [7] is filed under the species Homo sapiens. As to the kind of experiment: Selectivity ratio of inhibition of human NatA to inhibition of human NatD.
The target of data set [8] is N-alpha-acetyltransferase 40 (Homo sapiens) (UniProt Q86UY6). Description: Non-competitive inhibition of human NatD using various concentration of [14C]acetyl-CoA and fixed human H4 peptide as substrate measured after 13 mins radioactive assay.
The test system of data set [9] is NatC (Schizosaccharomyces pombe). Description: Selectivity ratio of inhibition of Schizosaccharomyces pombe NatC to inhibition of human NatD.
The target in data set [10] is N-alpha-acetyltransferase 40 (Homo sapiens) (UniProt Q86UY6). The conditions noted are these: HCT-116, Lysate, dose 100.0 µM, time 2.0 hrs.
For data set [11], the species on record is Homo sapiens. As to the kind of experiment: Selectivity ratio of inhibition of human MOF to inhibition of human NatD.
Data set [12] concerns the target Histone acetyltransferase KAT2B (Homo sapiens) (UniProt Q92831). As to the kind of experiment: Inhibition of human PCAF using AcCoA and H4 peptide as substrate at 10 uM incubated for 20 min at room temperature.

Chain of Histone acetyltransferase KAT2B (Homo sapiens) (Q92831 whole entry, looked up): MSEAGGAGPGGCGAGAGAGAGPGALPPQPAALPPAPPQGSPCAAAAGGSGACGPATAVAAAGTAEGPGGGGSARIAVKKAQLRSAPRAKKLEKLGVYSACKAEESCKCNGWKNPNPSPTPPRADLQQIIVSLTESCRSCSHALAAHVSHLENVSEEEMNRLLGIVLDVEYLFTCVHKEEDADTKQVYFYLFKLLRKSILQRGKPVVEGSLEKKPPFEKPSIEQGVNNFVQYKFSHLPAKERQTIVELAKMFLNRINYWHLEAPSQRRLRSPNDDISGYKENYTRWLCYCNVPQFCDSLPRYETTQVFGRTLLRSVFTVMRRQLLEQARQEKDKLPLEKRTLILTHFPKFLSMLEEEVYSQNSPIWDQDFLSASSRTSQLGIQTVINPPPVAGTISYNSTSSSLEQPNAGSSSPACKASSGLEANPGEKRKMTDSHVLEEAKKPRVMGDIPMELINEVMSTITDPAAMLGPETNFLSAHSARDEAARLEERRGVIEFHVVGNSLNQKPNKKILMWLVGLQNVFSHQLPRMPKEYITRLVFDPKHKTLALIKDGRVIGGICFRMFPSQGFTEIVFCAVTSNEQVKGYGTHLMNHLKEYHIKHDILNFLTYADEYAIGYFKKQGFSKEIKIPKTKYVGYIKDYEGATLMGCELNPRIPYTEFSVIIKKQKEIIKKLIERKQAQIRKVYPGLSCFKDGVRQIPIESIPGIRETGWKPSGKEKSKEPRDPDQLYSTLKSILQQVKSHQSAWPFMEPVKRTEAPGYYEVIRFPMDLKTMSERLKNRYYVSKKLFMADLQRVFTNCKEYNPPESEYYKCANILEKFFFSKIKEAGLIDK

In general, inhibition refers to the share of the control response that was lost under treatment. On to `CC(C)(COP(=O)(O)OP(=O)(O)OC[C@H]1O[C@@H](n2cnc3c(N)ncnc32)[C@H](OP(=O)(O)O)[C@@H]1O)C(O)C(=O)NCCC(=O)NCCSCCC(=O)N[C@@H](CO)C(=O)NCC(=O)N[C@@H](CCCNC(=N)N)C(=O)NCC(=O)N[C@@H](CCCCN)C(N)=O` (stereo partly drawn) ([Mpa](X2)SGRGK-NH2), for which the inhibition in data set [1] and in data set [2] was 10% in each case. The inhibition result in data set [3], in [4], in data set [5] and in data set [12] was “inactive” each time. Also, in data set [6], the Drug uptake entry is “Active”. Moreover, the figures for the Selectivity ratio in [7], in [9] and in [11] were 1000, 10000 and 1000, respectively. Besides, the alphaKi in [8] came out at 2.1 nM. The deltaT in [10] came to 1.7 °C.

`CC(C)(COP(=O)(O)OP(=O)(O)OC[C@H]1O[C@@H](n2cnc3c(N)ncnc32)[C@H](OP(=O)(O)O)[C@@H]1O)C(O)C(=O)NCCC(=O)NCCSCCC(=O)N[C@@H](CO)C(=O)NCC(=O)N[C@@H](CCCNC(=N)N)C(=O)NCC(N)=O` (stereo partly drawn): the Drug uptake result in [6] is listed as “Active”.
